This note sets out measurements from ChEMBL document CHEMBL1135338, “Protease inhibitors: synthesis of matrix metalloproteinase and bacterial collagenase inhibitors incorporating 5-amino-2-mercapto-1,3,4-thiadiazole zinc binding functions” (Bioorg Med Chem Lett, 2002).

Test [1] addresses Matrix metalloproteinase-9 (Homo sapiens, UniProt P14780). Put plainly: Inhibition of human matrix metalloprotease-9.
The target of test [2] is T1, Interstitial collagenase (Homo sapiens, UniProt P03956).
T1 sequence (P03956 whole entry): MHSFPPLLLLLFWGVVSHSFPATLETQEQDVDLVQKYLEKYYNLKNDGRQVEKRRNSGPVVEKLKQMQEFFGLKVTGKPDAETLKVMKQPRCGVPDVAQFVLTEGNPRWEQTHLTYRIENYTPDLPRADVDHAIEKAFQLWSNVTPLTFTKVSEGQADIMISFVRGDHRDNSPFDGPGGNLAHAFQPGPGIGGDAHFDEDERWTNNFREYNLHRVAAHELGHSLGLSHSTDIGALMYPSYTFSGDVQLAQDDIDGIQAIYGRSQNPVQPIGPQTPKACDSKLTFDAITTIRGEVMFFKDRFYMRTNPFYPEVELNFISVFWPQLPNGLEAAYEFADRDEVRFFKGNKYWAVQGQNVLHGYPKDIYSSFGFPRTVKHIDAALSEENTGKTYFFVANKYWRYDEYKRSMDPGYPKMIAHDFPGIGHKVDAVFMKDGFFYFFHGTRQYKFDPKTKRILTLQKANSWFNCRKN
Nature of the test: Inhibition of human matrix metalloprotease-1.

Test [3] concerns the target T2, 72 kDa type IV collagenase (Homo sapiens, UniProt P08253). Nature of the test: Inhibition of human matrix metalloprotease-2.
Test [4] concerns the target Neutrophil collagenase (Homo sapiens, UniProt P22894). Put plainly: Inhibition of human matrix metalloprotease-8.
Test [5] has as its target T2, 72 kDa type IV collagenase. Put plainly: Inhibition of human Matrix metalloprotease-2.
In test [6] the target is Stromelysin-1 (Homo sapiens, UniProt P08254). Put plainly: Inhibition of human Matrix metalloprotease-3.
Sequence of Stromelysin-1 (P08254 whole entry): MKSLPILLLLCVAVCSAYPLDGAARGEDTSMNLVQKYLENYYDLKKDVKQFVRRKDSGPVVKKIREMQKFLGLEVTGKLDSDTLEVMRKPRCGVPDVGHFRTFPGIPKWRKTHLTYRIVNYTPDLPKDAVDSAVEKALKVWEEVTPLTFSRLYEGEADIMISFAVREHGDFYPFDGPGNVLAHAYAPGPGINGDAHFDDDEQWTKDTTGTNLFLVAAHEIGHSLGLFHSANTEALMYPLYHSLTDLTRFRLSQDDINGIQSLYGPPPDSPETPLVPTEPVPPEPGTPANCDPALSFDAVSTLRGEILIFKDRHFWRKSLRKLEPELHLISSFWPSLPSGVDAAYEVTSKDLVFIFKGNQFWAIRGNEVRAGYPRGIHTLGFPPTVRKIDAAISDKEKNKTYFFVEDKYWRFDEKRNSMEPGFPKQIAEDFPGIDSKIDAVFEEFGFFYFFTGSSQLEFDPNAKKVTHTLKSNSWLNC

T2 sequence (P08253 whole entry): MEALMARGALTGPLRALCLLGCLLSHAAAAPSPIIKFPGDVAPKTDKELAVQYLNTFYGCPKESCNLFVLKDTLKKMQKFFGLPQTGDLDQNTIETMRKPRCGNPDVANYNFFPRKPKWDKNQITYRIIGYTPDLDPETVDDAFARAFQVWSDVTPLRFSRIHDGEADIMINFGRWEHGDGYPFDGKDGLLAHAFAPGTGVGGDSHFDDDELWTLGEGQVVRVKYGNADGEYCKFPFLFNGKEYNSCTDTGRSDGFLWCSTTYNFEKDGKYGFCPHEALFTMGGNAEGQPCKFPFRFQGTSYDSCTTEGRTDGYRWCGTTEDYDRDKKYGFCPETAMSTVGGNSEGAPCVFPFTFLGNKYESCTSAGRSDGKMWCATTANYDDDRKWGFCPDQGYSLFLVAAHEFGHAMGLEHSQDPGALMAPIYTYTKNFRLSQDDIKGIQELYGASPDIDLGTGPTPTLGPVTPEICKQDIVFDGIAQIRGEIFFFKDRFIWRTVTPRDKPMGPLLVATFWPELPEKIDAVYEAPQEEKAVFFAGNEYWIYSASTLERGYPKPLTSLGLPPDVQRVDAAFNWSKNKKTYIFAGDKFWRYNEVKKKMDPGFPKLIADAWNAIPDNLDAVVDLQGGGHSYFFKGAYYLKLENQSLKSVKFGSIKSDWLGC
Sequence of Neutrophil collagenase (P22894 whole entry): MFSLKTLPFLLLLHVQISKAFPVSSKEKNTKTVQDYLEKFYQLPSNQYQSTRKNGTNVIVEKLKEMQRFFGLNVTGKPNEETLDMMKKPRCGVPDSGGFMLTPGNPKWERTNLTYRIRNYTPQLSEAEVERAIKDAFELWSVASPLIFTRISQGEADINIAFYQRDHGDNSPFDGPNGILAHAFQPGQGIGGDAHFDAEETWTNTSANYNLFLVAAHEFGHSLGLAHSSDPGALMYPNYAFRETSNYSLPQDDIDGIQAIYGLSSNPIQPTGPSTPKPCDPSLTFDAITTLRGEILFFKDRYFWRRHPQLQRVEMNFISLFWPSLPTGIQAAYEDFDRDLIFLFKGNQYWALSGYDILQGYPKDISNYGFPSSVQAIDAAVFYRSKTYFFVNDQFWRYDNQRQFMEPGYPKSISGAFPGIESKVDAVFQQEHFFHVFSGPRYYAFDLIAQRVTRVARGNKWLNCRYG
Sequence of Matrix metalloproteinase-9 (P14780 whole entry): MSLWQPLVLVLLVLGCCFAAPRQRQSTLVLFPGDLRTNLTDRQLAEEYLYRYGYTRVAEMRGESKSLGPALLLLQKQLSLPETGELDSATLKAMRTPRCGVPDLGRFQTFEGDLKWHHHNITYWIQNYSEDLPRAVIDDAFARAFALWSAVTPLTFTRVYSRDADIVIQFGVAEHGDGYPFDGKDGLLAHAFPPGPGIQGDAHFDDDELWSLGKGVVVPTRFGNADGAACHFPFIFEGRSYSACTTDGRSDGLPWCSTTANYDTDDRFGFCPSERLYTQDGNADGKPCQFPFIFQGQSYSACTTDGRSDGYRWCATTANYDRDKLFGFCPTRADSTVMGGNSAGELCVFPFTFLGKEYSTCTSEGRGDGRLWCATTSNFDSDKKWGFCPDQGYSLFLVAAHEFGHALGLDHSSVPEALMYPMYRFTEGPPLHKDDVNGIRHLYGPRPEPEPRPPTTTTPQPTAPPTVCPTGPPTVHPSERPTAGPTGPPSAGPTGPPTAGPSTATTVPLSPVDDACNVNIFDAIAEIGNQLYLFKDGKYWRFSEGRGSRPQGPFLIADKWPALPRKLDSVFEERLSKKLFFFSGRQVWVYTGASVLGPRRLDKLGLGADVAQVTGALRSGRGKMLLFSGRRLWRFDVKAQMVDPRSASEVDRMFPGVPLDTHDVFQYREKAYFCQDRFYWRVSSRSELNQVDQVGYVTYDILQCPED

Regarding `C[C@H](NC(=O)[C@H](Cc1ccccc1)NS(=O)(=O)c1ccccc1[N+](=O)[O-])C(=O)Nc1n[nH]c(=S)s1`, the Ki in test [1] came out at 14 µM; in test [2], 29 µM; in test [3] it was 15 µM; in test [4], 17 µM.

`C[C@H](NC(=O)[C@H](Cc1ccccc1)NS(=O)(=O)c1ccc(I)cc1)C(=O)Nc1n[nH]c(=S)s1`: the Ki in test [1] amounted to 18 µM; in test [2] it was 21 µM; in test [3], 17 µM.

`C[C@H](NC(=O)[C@H](Cc1ccccc1)NC(=O)NS(=O)(=O)c1ccc(F)cc1)C(=O)Nc1n[nH]c(=S)s1`: the Ki is 0.3 µM in test [1], 12 µM in test [2], 2 µM in test [3] and 0.1 µM in test [4].

Take `Cc1ccc(S(=O)(=O)NC(=O)N[C@@H](Cc2ccccc2)C(=O)N[C@@H](C)C(=O)Nc2n[nH]c(=S)s2)cc1`: the Ki in test [1] is 5 µM; in test [2], 15 µM; in test [3], 7 µM; in test [4], 5 µM.

`C[C@H](NC(=O)[C@H](Cc1ccccc1)NS(=O)(=O)c1cc(Cl)ccc1Cl)C(=O)Nc1n[nH]c(=S)s1`: the Ki in test [1] is 17 µM; in test [2], 19 µM; in test [3] it was 10 µM; in test [4], 9 µM.

In the case of `COc1ccc(S(=O)(=O)N[C@@H](Cc2ccccc2)C(=O)N[C@@H](C)C(=O)Nc2n[nH]c(=S)s2)cc1`, the Ki in test [1] was found to be 21 µM; in test [2], 28 µM; in test [3] it was 18 µM; in test [4] it was 20 µM.

`CC(C)C(NS(=O)(=O)c1ccc(-c2ccc(Cl)cc2)cc1)C(=O)O` (stereo not drawn) gave an inhibitory constant (Ki) in test [5] of 2 µM.

In test [5], `CC(C)C(NS(=O)(=O)c1ccc(-c2ccccc2)cc1)C(=O)O` (stereo not drawn) gave a Ki of 2 µM.

`O=C(O)[C@H](Cc1c[nH]c2ccccc12)NS(=O)(=O)c1ccc(N2CCC(c3ccccc3)CC2)cc1` yielded a Ki in test [6] of 0.019 µM.

In the case of `C[C@H](NC(=O)[C@H](Cc1ccccc1)NS(=O)(=O)c1ccc([N+](=O)[O-])cc1)C(=O)Nc1n[nH]c(=S)s1`, the inhibition constant (Ki) in test [1] was 18 µM; in test [2], 15 µM; in test [3], 12 µM; in test [4], 10 µM.

In test [5], `O=C(O)C(Cc1ccccc1)NS(=O)(=O)c1ccc(-c2ccc(Cl)cc2)cc1` (stereo not drawn) gave an inhibition constant Ki of 2 µM.

Turning to `CC(=O)Nc1ccc(S(=O)(=O)N[C@@H](Cc2ccccc2)C(=O)N[C@@H](C)C(=O)Nc2n[nH]c(=S)s2)cc1`, the Ki was 10 µM in test [1], 14 µM in test [2] and 8 µM in test [3].

Regarding `Cc1ccc(S(=O)(=O)N[C@@H](Cc2ccccc2)C(=O)N[C@@H](C)C(=O)Nc2n[nH]c(=S)s2)cc1`, the Ki in test [1] worked out at 20 µM; in test [2], 30 µM; in test [3], 20 µM; in test [4] it was 23 µM.

For `Cc1cc(C)c(S(=O)(=O)N[C@@H](Cc2ccccc2)C(=O)N[C@@H](C)C(=O)Nc2n[nH]c(=S)s2)c(C)c1`, the Ki in test [1] stood at 29 µM; in test [2], 33 µM; in test [3] it was 24 µM; in test [4], 25 µM.

On to `C[C@H](NC(=O)[C@H](Cc1ccccc1)NS(=O)(=O)c1ccc(Cl)cc1)C(=O)Nc1n[nH]c(=S)s1`, for which the Ki in test [1] was determined as 15 µM; in test [2], 20 µM; in test [3] it was 16 µM.

`C[C@H](NC(=O)[C@H](Cc1ccccc1)NC(=O)NS(=O)(=O)c1ccccc1)C(=O)Nc1n[nH]c(=S)s1`: the Ki is 4 µM in test [1], 19 µM in test [2] and 5 µM in test [3].

Regarding `C[C@H](NC(=O)[C@H](Cc1ccccc1)NS(=O)(=O)c1cccs1)C(=O)Nc1n[nH]c(=S)s1`, the values for the Ki in test [1], in test [2] and in test [3] were 10 µM, 14 µM and 13 µM, respectively.

Take `C[C@H](NC(=O)[C@H](Cc1ccccc1)NS(=O)(=O)c1ccc(F)cc1)C(=O)Nc1n[nH]c(=S)s1`: the results for the inhibition constant Ki in test [1], in test [2] and in test [3] were 14 µM, 19 µM and 17 µM, respectively.

As to `C[C@H](NC(=O)[C@H](Cc1ccccc1)NC(=O)NS(=O)(=O)c1ccc(Cl)cc1)C(=O)Nc1n[nH]c(=S)s1`, the Ki in test [1] was determined as 0.4 µM; in test [2], 10 µM; in test [3], 4 µM; in test [4], 0.2 µM.

For `C[C@H](NC(=O)[C@H](Cc1ccccc1)NS(=O)(=O)Cc1ccccc1)C(=O)Nc1n[nH]c(=S)s1`, the inhibition constant Ki is 16 µM in test [1], 24 µM in test [2] and 16 µM in test [3].

For `C[C@H](NC(=O)[C@H](Cc1ccccc1)NS(=O)(=O)c1cccc([N+](=O)[O-])c1)C(=O)Nc1n[nH]c(=S)s1`, the Ki in test [1] stood at 18 µM; in test [2], 18 µM; in test [3] it was 12 µM; in test [4], 13 µM.

For the molecule `C[C@H](NC(=O)[C@H](Cc1ccccc1)NS(=O)(=O)c1ccc(Br)cc1)C(=O)Nc1n[nH]c(=S)s1`, the results for the Ki in test [1], in test [2] and in test [3] were 21 µM, 24 µM and 15 µM, respectively.

As to `C[C@H](NC(=O)[C@H](Cc1ccccc1)NS(=O)(=O)c1cccc2c(N(C)C)cccc12)C(=O)Nc1n[nH]c(=S)s1`, the inhibition constant (Ki) amounted to 50 µM in test [1], 87 µM in test [2], 40 µM in test [3] and 48 µM in test [4].

On to `C[C@H](NC(=O)[C@H](Cc1ccccc1)NS(=O)(=O)c1cccc(C(F)(F)F)c1)C(=O)Nc1n[nH]c(=S)s1`, for which the figures for the Ki in test [1], in test [2] and in test [3] were 5 µM, 13 µM and 11 µM, respectively.

Take `O=C(O)C(Cc1ccccc1)NS(=O)(=O)c1ccc(-c2ccc(Br)cc2)cc1` (stereo not drawn): the affinity in test [5], expressed as Ki, was 2 µM.

Molecule `O=C(O)C(Cc1ccccc1)NS(=O)(=O)c1ccc(-c2ccccc2)cc1` (stereo not drawn) returned a Ki in test [5] of 2 µM.

Turning to `C[C@H](NC(=O)[C@H](Cc1ccccc1)NS(=O)(=O)c1cccc2ccccc12)C(=O)Nc1n[nH]c(=S)s1`, the Ki worked out at 44 µM in test [1], 80 µM in test [2] and 36 µM in test [3].

For `C[C@H](NC(=O)[C@H](Cc1ccccc1)NS(=O)(=O)c1cccc2cccnc12)C(=O)Nc1n[nH]c(=S)s1`, the Ki in test [1] stood at 45 µM; in test [2], 74 µM; in test [3] it was 41 µM; in test [4] it was 39 µM.

In the case of `C[C@H](NC(=O)[C@H](Cc1ccccc1)NS(=O)(=O)c1c(F)c(F)c(F)c(F)c1F)C(=O)Nc1n[nH]c(=S)s1`, the Ki in test [1] was found to be 2 µM; in test [3] it was 6 µM; in test [4], 1 µM.

As for `Cc1ccccc1S(=O)(=O)NC(=O)N[C@@H](Cc1ccccc1)C(=O)N[C@@H](C)C(=O)Nc1n[nH]c(=S)s1`, the Ki in test [1] stood at 7 µM; in test [2] it was 19 µM; in test [3] it was 8 µM; in test [4] it was 6 µM.

In the case of `C[C@H](NC(=O)[C@H](Cc1ccccc1)NS(=O)(=O)CC12CCC(CC1=O)C2(C)C)C(=O)Nc1n[nH]c(=S)s1` (stereo partly drawn), the Ki in test [1] came to 40 µM; in test [2] it was 69 µM; in test [3] it was 35 µM; in test [4], 34 µM.

As for `C[C@H](NC(=O)[C@H](Cc1ccccc1)NS(=O)(=O)c1ccc2ccccc2c1)C(=O)Nc1n[nH]c(=S)s1`, the Ki in test [1] came to 53 µM; in test [2], 72 µM; in test [3], 33 µM; in test [4] it was 45 µM.

Regarding `C[C@H](NC(=O)[C@H](Cc1ccccc1)NS(=O)(=O)c1ccccc1)C(=O)Nc1n[nH]c(=S)s1`, the Ki in test [1] was found to be 15 µM; in test [2] it was 22 µM; in test [3] it was 18 µM; in test [4], 24 µM.
